Columns and labels:
pcb-00197 = system: pcb-00197 (human undifferentiated pleomorphic sarcoma culture)
Method: (§1)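 60-agent targeted drug screens (Drug Screen V3 on epithelioid sarcoma cultures PCB490-3/4/5, PCB495, EPS cell lines ESX, VA-ES-BJ, FU-EPS-1 and SkMc myoblasts; PPTI screen v2.1 on human UPS PCB197 and canine UPS S1-12). 384-well plates, 72 h, CellTiter-Glo viability; IC50 by Hill curve fit. 10000 nM = no IC50 achieved (top reported value).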

s1-12 = system: s1-12 (canine undifferentiated pleomorphic sarcoma culture)
Method: as §1

Row | Compound | IC50 cell viability (pcb-00197) [nM] | IC50 cell viability (s1-12) [nM] | IC50 cell viability (U23674) [nM]
1 | CO[C@H]1C[C@@H]2CC[C@@H](C)[C@@](O)(O2)C(=O)C(=O)N2CCCC[C@H]2C(=O)O[C@H]([C@H](C)C[C@@H]2CC[C@@H](OC(=O)C(C)(CO)CO)[C@H](OC)C2)CC(=O)[C@H](C)/C=C(\C)[C@@H](O)[C@@H](OC)C(=O)[C@H](C)C[C@H](C)/C=C/C=C/C=C/1C [temsirolimus] | > 10000 | > 10000 | –
2 | COc1cc2nccc(Oc3ccc(NC(=O)C4(C(=O)Nc5ccc(F)cc5)CC4)cc3)c2cc1OC [Cabozantinib] | > 10000 | > 10000 | –
3 | COc1cc2/c(=N/c3ccc(Br)cc3F)nc[nH]c2cc1OCC1CCN(C)CC1 [Vandetanib] | 1320 | 1240 | –
4 | COC1=CC(c2cc3ccccc3[nH]2)=N/C1=C\c1[nH]c(C)cc1C [obatoclax] | 210 | 40 | –
5 | CC(C)C[C@H](NC(=O)[C@H](CCc1ccccc1)NC(=O)CN1CCOCC1)C(=O)N[C@@H](Cc1ccccc1)C(=O)N[C@@H](CC(C)C)C(=O)[C@@]1(C)CO1 [carfilzomib] | 470 | 990 | –
6 | Cn1c(=O)n(-c2ccc(C(C)(C)C#N)cc2)c2c3cc(-c4cnc5ccccc5c4)ccc3ncc21 [BEZ 235] | 570 | 220 | –
7 | Cc1ccc(C(=O)Nc2ccc(CN3CCN(C)CC3)c(C(F)(F)F)c2)cc1C#Cc1cnc2cccnn12 [ponatinib] | 4430 | 160 | –
8 | CC1=C(/C=C/C(C)=C/C=C/C(C)=C/C(=O)Nc2ccc(O)cc2)C(C)(C)CCC1 [Fenretinide] | > 10000 | 1840 | –
9 | CC(C)C[C@H](NC(=O)[C@H](Cc1ccccc1)NC(=O)c1cnccn1)B(O)O [bortezomib] | 4830 | 4690 | –
10 | CCNC(=O)c1noc(-c2cc(C(C)C)c(O)cc2O)c1-c1ccc(CN2CCOCC2)cc1 [AUY922] | 400 | 30 | –
11 | C[C@]1(c2nc3c(C(N)=O)cccc3[nH]2)CCCN1 [veliparib] | > 10000 | > 10000 | –
12 | N#Cc1ccc(COC[C@H]2O[C@@H](n3c(NCc4ccc(Cl)c(Cl)c4)nc4c(N)ncnc43)[C@H](O)[C@@H]2O)cc1 | > 10000 | > 10000 | –
13 | CN1CCN(CCOc2cc(OC3CCOCC3)c3c(Nc4c(Cl)ccc5c4OCO5)ncnc3c2)CC1 [Saracatinib] | > 10000 | 1510 | –
14 | CCN(CC)CCCC(C)Nc1c2ccc(Cl)cc2nc2ccc(OC)cc12 (stereo not given) [quinacrine] | 1570 | 990 | –
15 | CNC(=O)CN1CCC(Oc2cc3c(Nc4cccc(Cl)c4F)ncnc3cc2OC)CC1 [AZD-8931] | > 10000 | > 10000 | –
16 | CN(C)c1ccccc1CN1CCCN(Cc2ccccc2N(C)C)C1c1ccncc1 [GANT61] | > 10000 | > 10000 | –
17 | CCOc1cc2ncc(C#N)c(Nc3ccc(F)c(Cl)c3)c2cc1NC(=O)/C=C/CN(C)C [pelitinib] | > 10000 | 200 | –
18 | CN(c1ncccc1CNc1nc(Nc2ccc3c(c2)CC(=O)N3)ncc1C(F)(F)F)S(C)(=O)=O | 4560 | 1420 | –
19 | Cn1cc(C2=C(c3cn(C4CCN(Cc5ccccn5)CC4)c4ccccc34)C(=O)NC2=O)c2ccccc21 [enzastaurin] | > 10000 | > 10000 | –
20 | CS(=O)(=O)c1ccc(C(=O)Nc2ccc(Cl)c(-c3ccccn3)c2)c(Cl)c1 [vismodegib] | > 10000 | 2750 | –
21 | NC(=O)c1ccc(-c2nc(-c3ccccn3)c(-c3ccc4c(c3)OCO4)[nH]2)cc1 | > 10000 | > 10000 | > 10000
22 | Cn1cnc2c(F)c(Nc3ccc(Br)cc3Cl)c(C(=O)NOCCO)cc21 [selumetinib] | > 10000 | 1550 | –
